In patent publication US7855202B2, “Imidazopyridine derivatives as A2B adenosine receptor antagonists” (Laboratorios Almirall, S.A., priority 2005, dated 2010):

What follows are compounds tested against T1, human A2B receptor (Homo sapiens, UniProt P29275) (assay: Adenosine 2B receptor subtype competition radioligand binding assay ([3H]-DPCPX, membranes of HEK293 cells)). Settings: binding activity, 35 nM [3H]-DPCPX, A2B membranes from HEK293 cells.
T1 construct: membranes prepared from them
T1 sequence (P29275 1-332): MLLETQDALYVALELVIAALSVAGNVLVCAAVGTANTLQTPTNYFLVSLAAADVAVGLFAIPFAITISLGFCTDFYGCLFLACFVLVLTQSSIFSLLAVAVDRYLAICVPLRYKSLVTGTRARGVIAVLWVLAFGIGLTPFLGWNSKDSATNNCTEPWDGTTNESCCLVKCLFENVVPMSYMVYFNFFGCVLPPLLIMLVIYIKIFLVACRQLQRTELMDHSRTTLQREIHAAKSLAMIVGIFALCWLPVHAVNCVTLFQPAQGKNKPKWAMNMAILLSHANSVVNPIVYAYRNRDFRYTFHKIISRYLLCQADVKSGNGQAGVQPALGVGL
Description: Adenosine 2B Receptor Subtype Competition Radioligand Binding Assay
A2B membranes were prepared from HEK293 cells stably expressing the human A2B receptor that were purchased from Euroscreen (ES-013-C). Competition assays were carried out incubating in polypropylene 96 well-plates (no 267245, NUNC) containing 2 μl of either 1% DMSO solution, test compound or 100 μM 5′NECA (SIGMA E-2387) for non-specific binding, 100 μg of A2B-membranes (prepared in Tris-HCl 50 mM pH 6.5, MgCl2 10 mM, EDTA 1 mM, benzamidine 0.1 mM; buffer A) and 35 nM [^3H]-DPCPX (TRK1064, 128 Ci/mmol, Amersham), in a total volume of 200 μl of buffer A+2 UI/ml adenosine deaminase, for 60 minutes at room temperature. At the end of the incubation, samples were transferred to a GF/C filter plates (Milipore MAFCNOB50) pretreated for 15 min. with 250 μl of Tris-HCl 50 mM pH 6.5 (Buffer B). Samples were then filtered 4 times with 250 μl of buffer B. Samples were counted using 30 μl of Hisafe II (Perkin Elmer) in a Trilux counter.

Compound | Ki [nM]
CN(C)c1ccc(-c2nc3cc(-c4ccncc4F)c(-c4cccnc4)nc3[nH]2)cc1 [Example 7, N-{4-[6-(3-Fluoropyridin-4-yl)-5-pyridin-3-yl-3H-imidazo[4,5-b]pyridin-2-yl]phenyl}-N,N-dimethylamine] | 1.7
Fc1cnccc1-c1cc2nc(-c3ccncc3)[nH]c2nc1-c1cccnc1 [Example 12, 6-(3-Fluoropyridin-4-yl)-5-pyridin-3-yl-2-pyridin-4-yl-3H-imidazo[4,5-b]pyridine] | 1.8
Fc1ccc(Cc2nc3cc(-c4ccncc4F)c(-c4cccnc4)nc3[nH]2)cc1 [Example 16, 2-(4-Fluorobenzyl)-6-(3-fluoropyridin-4-yl)-5-pyridin-3-yl-3H-imidazo[4,6-b]pyridine] | 24
O=c1[nH]c2cc(-c3ccncc3)c(-c3ccncc3F)nc2[nH]1 [Example 23, 5-(3-Fluoropyridin-4-yl)-6-pyridin-4-yl-1,3-dihydro-2H-imidazo[4,5-b]pyridin-2-one] | 7
O=c1[nH]c2cc(-c3ccncc3F)c(-c3ncco3)nc2[nH]1 [Example 32, 6-(3-Fluoropyridin-4-yl)-5-(1,3-oxazol-2-yl)-1,3-dihydro-2H-imidazo[4,5-b]pyridin-2-one] | 24
Fc1cnccc1-c1cc2nc(-c3cccnc3)[nH]c2nc1-c1cccnc1 [Example 39, 6-(3-Fluoropyridin-4-yl)-2,5-dipyridin-3-yl-3H-imidazo[4,5-b]pyridine] | 3.8
Cn1cncc1-c1nc2cc(-c3ccncc3F)c(-c3cccnc3)nc2[nH]1 [Example 46, 6-(3-Fluoropyridin-4-yl)-2-(1-methyl-1H-imidazol-5-yl)-5-pyridin-3-yl-3H-imidazo[4,5-b]pyridine] | 9.5
O=c1[nH]c2cc(-c3c(F)cncc3F)c(-c3cccnc3)nc2[nH]1 [Example 67, 6-(3,5-Difluoropyridin-4-yl)-5-pyridin-3-yl-1,3-dihydro-2H-imidazo[4,5-b]pyridin-2-one] | 26

Next, values leading:

Ki [nM] | Compound
0.8 | COc1ccc(-c2nc3cc(-c4ccncc4F)c(-c4cccnc4)nc3[nH]2)cc1 [Example 6, 6-(3-Fluoropyridin-4-yl)-2-(4-methoxyphenyl)-6-pyridin-3-yl-3H-imidazo[4,5-b]pyridine]
8 | O=C(O)c1ccc(-c2nc3cc(-c4ccncc4F)c(-c4cccnc4)nc3[nH]2)cc1 [Example 11, 4-[6-(3-Fluoropyridin-4-yl)-5-pyridin-3-yl-3H-imidazo[4,5-b]pyridin-2-yl]benzoic acid]
2.2 | Cc1ccc(-c2nc3cc(-c4ccncc4F)c(-c4cccnc4)nc3[nH]2)cc1F [Example 37, 2-(3-Fluoro-4-methylphenyl)-6-(3-fluoropyridin-4-yl)-5-pyridin-3-yl-3H-imidazo[4,5-b]pyridine]
2.8 | Fc1cccc(-c2nc3cc(-c4ccncc4F)c(-c4cccnc4)nc3[nH]2)c1 [Example 38, 2-(3-Fluorophenyl)-6-(3-fluoropyridin-4-yl)-5-pyridin-3-yl-3H-imidazo[4,6-b]pyridine]
2.8 | Fc1ccc(-c2nc3cc(-c4c(F)cncc4F)c(-c4cccnc4)nc3[nH]2)cc1 [Example 65, 6-(3,5-Difluoropyridin-4-yl)-2-(4-fluorophenyl)-5-pyridin-3-yl-3H-imidazo[4,5-b]pyridine]
23 | O=C(O)c1ccc(-c2nc3cc(-c4c(F)cncc4F)c(-c4cccnc4)nc3[nH]2)cc1 [Example 66, 4-[6-(3,5-Difluoropyridin-4-yl)-5-pyridin-3-yl-3H-imidazo[4,5-b]pyridin-2-yl]benzoic acid]
